The record followed here is US12275732B2, “Cyclic compounds as receptor modulating therapeutics and methods and uses thereof” (Bionomics Limited, priority 2018, dated 2025).

A short description of this data set: A2B permeability (Papp) in MDCK-MDR1 cell monolayers. Conditions: dog, MDCK-MDR1 monolayer, apical to basolateral (A-B), 10 μM test compound, HBSS pH 7.4, duplicate. In kind it is in vitro ADME. The method, then:
Permeability Data for Compounds was Collected Using the Following Experimental Procedure:
MDCK-MDR1 cells obtained from the NIH (Rockville, Md., USA) are used between passage numbers 6-30. Cells are seeded onto Millipore Multiscreen Transwell plates at 3.4×10^5 cells/cm2. The cells are cultured in DMEM and media is changed on day 3. On day 4 the permeability study is performed. Cell culture and assay incubations are carried out at 37° C. in an atmosphere of 5% CO2 with a relative humidity of 95%. On the day of the assay, the monolayers are prepared by rinsing both apical and basolateral surfaces twice with Hanks Balanced Salt Solution (HBSS) at the desired pH warmed to 37° C. Cells are then incubated with HBSS at the desired pH in both apical and basolateral compartments for 40 min to stabilise physiological parameters.
The dosing solutions are prepared by diluting test compound with assay buffer to give a final test compound concentration of 10 μM (final DMSO concentration of 1% v/v). The fluorescent integrity marker lucifer yellow is also included in the dosing solution. Analytical standards are prepared from test compound DMSO dilutions and transferred to buffer, maintaining a 1% v/v DMSO concentration.
Typical assay buffer is composed of supplemented HBSS pH 7.4 but a range of other buffers and pH values can be used.
For assessment of A-B permeability, HBSS is removed from the apical compartment and replaced with test compound dosing solution. The apical compartment insert is then placed into a companion plate containing fresh buffer (containing 1% v/v DMSO). For assessment of B-A permeability, HBSS is removed from the companion plate and replaced with test compound dosing solution. Fresh buffer (containing 1% v/v DMSO) is added to the apical compartment insert, which is then placed into the companion plate.
At 60 min the apical compartment inserts and the companion plates are separated and apical and basolateral samples diluted for analysis.
Test compound permeability is assessed in duplicate. Compounds of known permeability characteristics are run as controls on each assay plate.
Test and control compounds are quantified by LC-MS/MS cassette analysis using a 7-point calibration with appropriate dilution of the samples. Cyprotex generic analytical conditions are used. The starting concentration (CO) is determined from the dosing solution and the experimental recovery calculated from CO and both apical and basolateral compartment concentrations.
The integrity of the monolayer throughout the experiment is checked by monitoring lucifer yellow permeation using fluorimetric analysis. Lucifer yellow permeation is high if monolayers have been damaged. If a lucifer yellow Papp value is above a pre-defined threshold in one well, but the derived Papp result for test compound or marker compound in that well is qualitatively similar to that determined in the remaining replicate well (within the lucifer yellow threshold) then, based upon the scientific judgment of the responsible scientist, the cell monolayer may be considered acceptable. If this is not the case, then the result from the affected monolayer is excluded and an n=1 result is reported, or the compound may be retested. If lucifer yellow Papp values are above the threshold in both replicate wells for a test compound, the compound is re-tested. If this re-occurs upon repeat in both wells then toxicity or inherent fluorescence of the test compound is assumed. No further experiments are performed in this instance.
The permeability coefficient (Papp) for each compound is calculated from the following equation: […]
Where dQ/dt is the rate of permeation of the drug across the cells, CO is the donor compartment concentration at time zero and A is the area of the cell monolayer. C0 is obtained from analysis of the dosing solution.
`CCn1cc(C(=O)N2CCOCC2)c(=O)c2cc(OC3Cc4ccccc4C3)cnc21` [Example 1, 1-Ethyl-6-indan-2-yloxy-3-(morpholine-4-carbonyl)-1,8-naphthyridin-4-one] displayed an apical-to-basolateral permeability (Papp A→B) at 60 min, 10 μM of 2.19 ×10⁻⁶ cm/s.
Turning to `CCn1cc(C(=O)N2CCO[C@H](C)C2)c(=O)c2cc(OC3Cc4ccccc4C3)cnc21` [Example 2, 1-Ethyl-6-indan-2-yloxy-3-[(2R)-2-methylmorpholine-4-carbonyl]-1,8-naphthyridin-4-one], the apparent permeability from apical to basolateral (Papp A→B) at 60 min, 10 μM came out at 2.56 ×10⁻⁶ cm/s.
For `CCn1cc(C(=O)N2CCOC(C)(C)C2)c(=O)c2cc(OC3Cc4ccccc4C3)cnc21` [Example 4, 3-(2,2-dimethylmorpholine-4-carbonyl)-1-ethyl-6-indan-2-yloxy-1,8-naphthyridin-4-one] the value was 1.26 ×10⁻⁶ cm/s; for `CCn1cc(C(=O)N2C[C@@H](C)O[C@@H](C)C2)c(=O)c2cc(OC3Cc4ccccc4C3)cnc21` [Example 5, 3-[(2R,6S)-2,6-dimethylmorpholine-4-carbonyl]-1-ethyl-6-indan-2-yloxy-1,8-naphthyridin-4-one], 3.41 ×10⁻⁶ cm/s.
In turn, `CCn1cc(C(=O)N2C[C@H](C)O[C@@H](C)C2)c(=O)c2cc(OC3Cc4ccccc4C3)cnc21` [Example 6, 3-[(2S,6S)-2,6-dimethylmorpholine-4-carbonyl]-1-ethyl-6-indan-2-yloxy-1,8-naphthyridin-4-one] returned an apparent permeability from apical to basolateral (Papp A→B) at 60 min, 10 μM of 1.7 ×10⁻⁶ cm/s.
The value for `CCn1cc(C(=O)N2C[C@@H](C)O[C@H](C)C2)c(=O)c2cc(OC3Cc4ccccc4C3)cnc21` [Example 7, 3-[(2R,6R)-2,6-dimethylmorpholine-4-carbonyl]-1-ethyl-6-indan-2-yloxy-1,8-naphthyridin-4-one] was 1.79 ×10⁻⁶ cm/s.
Take `CCn1cc(C(=O)N2CC(C)(C)OC(C)(C)C2)c(=O)c2cc(OC3Cc4ccccc4C3)cnc21` [Example 8, 1-Ethyl-6-indan-2-yloxy-3-(2,2,6,6-tetramethylmorpholine-4-carbonyl)-1,8-naphthyridin-4-one]: the Papp A→B at 60 min, 10 μM was found to be 2.65 ×10⁻⁶ cm/s.
In turn, `CCn1cc(C(=O)N2[C@H](C)COC[C@@H]2C)c(=O)c2cc(OC3Cc4ccccc4C3)cnc21` [Example 10, 3-[(3R,5S)-3,5-dimethylmorpholine-4-carbonyl]-1-ethyl-6-indan-2-yloxy-1,8-naphthyridin-4-one] had a Papp A→B at 60 min, 10 μM of 1.99 ×10⁻⁶ cm/s. This Papp A→B at 60 min, 10 μM and that of the compound before are within 1.5-fold of each other.
For `CCn1cc(C(=O)N2[C@H](C)COC[C@H]2C)c(=O)c2cc(OC3Cc4ccccc4C3)cnc21` [Example 11, 3-[(3R,5R)-3,5-dimethylmorpholine-4-carbonyl]-1-ethyl-6-indan-2-yloxy-1,8-naphthyridin-4-one] the value was 3.83 ×10⁻⁶ cm/s; for `CCn1cc(C(=O)N2C3COCC2C3)c(=O)c2cc(OC3Cc4ccccc4C3)cnc21` [Example 16, 1-Ethyl-6-indan-2-yloxy-3-(3-oxa-6-azabicyclo[3.1.1]heptane-6-carbonyl)-1,8-naphthyridin-4-one], 2.06 ×10⁻⁶ cm/s.
For `CCn1cc(C(=O)N2C[C@H]3C[C@@H]2CO3)c(=O)c2cc(OC3Cc4ccccc4C3)cnc21` [Example 17, 1-Ethyl-6-indan-2-yloxy-3-[(1R,4R)-2-oxa-5-azabicyclo[2.2.1]heptane-5-carbonyl]-1,8-naphthyridin-4-one] the value was 0.87 ×10⁻⁶ cm/s; for `CCn1cc(C(=O)N2C3CCC2COC3)c(=O)c2cc(OC3Cc4ccccc4C3)cnc21` [Example 18, 1-Ethyl-6-indan-2-yloxy-3-(3-oxa-8-azabicyclo[3.2.1]octane-8-carbonyl)-1,8-naphthyridin-4-one], 1.41 ×10⁻⁶ cm/s; for `CCn1cc(C(=O)N2CC3CCC(C2)O3)c(=O)c2cc(OC3Cc4ccccc4C3)cnc21` [Example 19, 1-Ethyl-6-indan-2-yloxy-3-(8-oxa-3-azabicyclo[3.2.1]octane-3-carbonyl)-1,8-naphthyridin-4-one], 1.79 ×10⁻⁶ cm/s.
`CCn1cc(C(=O)N2C3CCCC2COC3)c(=O)c2cc(OC3Cc4ccccc4C3)cnc21` [Example 20, 1-Ethyl-6-indan-2-yloxy-3-(3-oxa-9-azabicyclo[3.3.1]nonane-9-carbonyl)-1,8-naphthyridin-4-one] yielded a Papp A→B at 60 min, 10 μM of 2.01 ×10⁻⁶ cm/s.
`CCn1cc(C(=O)N2CC3(CCOCC3)C2)c(=O)c2cc(OC3Cc4ccccc4C3)cnc21` [Example 23, 1-Ethyl-6-indan-2-yloxy-3-(7-oxa-2-azaspiro[3.5]nonane-2-carbonyl)-1,8-naphthyridin-4-one]: the Papp A→B at 60 min, 10 μM turned out to be 1.24 ×10⁻⁶ cm/s.
As for `CCn1cc(C(=O)N2CCOCC2)c(=O)c2cc(OC3Cc4ccccc4C3)ncc21` [Example 26, 1-Ethyl-6-indan-2-yloxy-3-(morpholine-4-carbonyl)-1,7-naphthyridin-4-one], the Papp A→B at 60 min, 10 μM came out at 1.56 ×10⁻⁶ cm/s.
For `CCn1cc(C(=O)N2CCOCC2)c(=O)c2cc(OC3Cc4ccccc4C3)nnc21` [Example 52, 8-Ethyl-3-indan-2-yloxy-6-(morpholine-4-carbonyl)pyrido[2,3-c]pyridazin-5-one] the value was 4.78 ×10⁻⁶ cm/s; for `CCn1cc(C(=O)N2CC3CCC(C2)O3)c(=O)c2cc(OC3Cc4ccccc4C3)nnc21` [Example 63, 8-Ethyl-3-indan-2-yloxy-6-(8-oxa-3-azabicyclo[3.2.1]octane-3-carbonyl)pyrido[2,3-c]pyridazin-5-one], 1.55 ×10⁻⁶ cm/s; for `CCn1cc(C(=O)N2CC3COCC(C3)C2)c(=O)c2cc(OC3Cc4ccccc4C3)nnc21` [Example 65, 8-Ethyl-3-indan-2-yloxy-6-(3-oxa-7-azabicyclo[3.3.1]nonane-7-carbonyl)pyrido[2,3-c]pyridazin-5-one], 0.98 ×10⁻⁶ cm/s.
